Patent US20230136297A1, “Methods Of Treating Fabry Disease In Patients Having A Mutation In The GLA Gene” (Amicus Therapeutics, Inc., priority 2020, published 2023)
Residue numbers refer to the chain shown, from its start.

Tests used:
Assay in all cases: α-Gal A activity in lysates of transfected HEK-293 cells ± migalastat (HEK assay)
Type in all cases: cell-based
[1] = biological target: T1, α-Gal A mutant form L310V (Homo sapiens, UniProt P06280, L310V)
T1 construct: expressed in transfected cells; host or cells: HEK-293
T1 sequence (P06280 32-429 L310V): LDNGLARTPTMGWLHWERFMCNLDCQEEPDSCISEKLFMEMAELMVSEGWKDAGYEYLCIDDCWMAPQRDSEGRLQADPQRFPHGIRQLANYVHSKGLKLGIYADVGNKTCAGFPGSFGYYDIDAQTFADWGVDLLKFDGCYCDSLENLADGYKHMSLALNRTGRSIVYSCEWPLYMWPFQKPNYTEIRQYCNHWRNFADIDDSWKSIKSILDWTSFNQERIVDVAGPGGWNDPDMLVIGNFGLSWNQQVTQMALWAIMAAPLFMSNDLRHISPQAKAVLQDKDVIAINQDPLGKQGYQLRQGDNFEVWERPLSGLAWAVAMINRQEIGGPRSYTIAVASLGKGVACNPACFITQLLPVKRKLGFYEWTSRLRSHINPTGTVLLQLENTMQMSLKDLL
From the text: (§1) Such mutations or variants are also referred to herein as “HEK assay amenable” mutations or variants.
(§2) The α-Gal A activity is expressed as the nmoles of free 4-MU released per milligram of protein per hour (nmol/mg/hr).

[2] = biological target: T2, α-Gal A mutant form R38S (Homo sapiens, UniProt P06280, R38S)
T2 construct: expressed in transfected cells; host or cells: HEK-293
T2 sequence (P06280 32-429 R38S): T1 sequence (P06280 32-429 L310V) with R7S, V279L
From the text: as §1, §2

[3] = biological target: T3, α-Gal A mutant form A257T (Homo sapiens, UniProt P06280, A257T)
T3 construct: expressed in transfected cells; host or cells: HEK-293
T3 sequence (P06280 32-429 A257T): T1 sequence (P06280 32-429 L310V) with A226T, V279L
From the text: as §1, §2

[4] = biological target: T4, α-Gal A mutant form A143V (Homo sapiens, UniProt P06280, A143V)
T4 construct: expressed in transfected cells; host or cells: HEK-293
T4 sequence (P06280 32-429 A143V): T1 sequence (P06280 32-429 L310V) with A112V, V279L
From the text: as §1, §2

[5] = biological target: T5, α-Gal A mutant form G411S (Homo sapiens, UniProt P06280, G411S)
T5 construct: expressed in transfected cells; host or cells: HEK-293
T5 sequence (P06280 32-429 G411S): T1 sequence (P06280 32-429 L310V) with V279L, G380S
From the text: as §1, §2

[6] = 10 μM migalastat minus baseline
[7] = HEK-293 lysates, 10 μM migalastat 5 days, mean ± SEM

- Absolute increase (% WT) [1, 6]: 22.8 % WT
- Relative increase ([1]; 10 μM migalastat ÷ baseline): 1.37
- 10 μM migalastat α-Gal A activity [1, 7]: 31936 ± 2527 nmol/mg/h
- 10 μM migalastat α-Gal A activity (% WT) [1, 7]: 78.4 ± 4.8 % WT
- Absolute increase (% WT) [2, 6]: 26.6 % WT
- Relative increase ([2]; 10 μM migalastat ÷ baseline): 1.29
- 10 μM migalastat α-Gal A activity [2, 7]: 30928 ± 1484 nmol/mg/h
- 10 μM migalastat α-Gal A activity (% WT) [2, 7]: 100 ± 9.3 % WT
- Absolute increase (% WT) [3, 6]: 40.6 % WT
- Relative increase ([3]; 10 μM migalastat ÷ baseline): 2.56
- 10 μM migalastat α-Gal A activity [3, 7]: 18990 ± 1196 nmol/mg/h
- 10 μM migalastat α-Gal A activity (% WT) [3, 7]: 66.2 ± 4.1 % WT
- Absolute increase (% WT) [4, 6]: 31.7 % WT
- Relative increase ([4]; 10 μM migalastat ÷ baseline): 3.24
- 10 μM migalastat α-Gal A activity [4, 7]: 13309 ± 921 nmol/mg/h
- 10 μM migalastat α-Gal A activity (% WT) [4, 7]: 45.5 ± 3.2 % WT
- Absolute increase (% WT) [5, 6]: 22 % WT
- Relative increase ([5]; 10 μM migalastat ÷ baseline): 1.58
- 10 μM migalastat α-Gal A activity [5, 7]: 17543 ± 867 nmol/mg/h
- 10 μM migalastat α-Gal A activity (% WT) [5, 7]: 61.1 ± 3.2 % WT
Structure (SMILES): OC[C@H]1NC[C@H](O)[C@@H](O)[C@H]1O [migalastat, (2R,3S,4R,5S)-2-(hydroxymethyl) piperdine-3,4,5-triol]
